Experimental data from US20240335439A1, “USE OF AND METHOD FOR TELAPREVIR IN PREPARATION OF DRUG FOR TREATING AN ISCHEMIA/REPERFUSION INJURY AND CYTOPROTECTIVE DRUG” (THE THIRD XIANGYA HOSPITAL OF CENTRAL SOUTH UNIVERSITY, priority 2021, published 2024).

Assays:
H9c2 myocardial cells = test: Hypoxia/reoxygenation injury of H9c2 myocardial cells, LDH release; assay type: cell-based; settings: H9c2, hypoxia 8 h / reoxygenation 12 h; telaprevir 10 μM; vs Hypoxia, FIG. 4
Procedure: H9c2 myocardial cells were purchased from the Xiangya Cell Bank of Central South University.
Cell culture method: Following a conventional cell culture method, the above cells were cultured in a DMEM medium (containing 10% of fetal bovine serum). When the cells fused and grew to 80-90%, the cells were digested with a trypsin. After the cells shrank and became round and the intercellular space was obvious, the digestion was immediately terminated with a medium, the cells were dispersed and blown evenly into a single suspension state, passaged in bottles, and cultured in a 37° C. cell incubator containing 5% of CO2. […]
Cell injury was detected by an LDH release rate.
The measurement followed the operating instructions of a commercially available lactate dehydrogenase kit (Shanghai Beyotime Biotechnology Co., Ltd., China). […] The absorbance of the sample was measured at 490 nm. Calculation: LDH release rate of cells (%)=(absorbance of the drug treatment group-absorbance of the control group)/(absorbance of the maximum enzyme release group-absorbance of the control group)×100%. When the absorbance value of each group was calculated, the absorbance value of the background blank control group was first subtracted.

SH-SY5Y nerve cells = test: Hypoxia/reoxygenation injury of SH-SY5Y nerve cells, MTS viability and LDH release; assay type: cell-based; settings: hypoxia 8 h / reoxygenation 24 h, telaprevir 1, 5, 10 μM, vs Hypoxia
Procedure: The measurement followed the operating instructions of a commercially available lactate dehydrogenase kit (Shanghai Beyotime Biotechnology Co., Ltd., China). Groups were designed according to experimental requirements, and a background blank control group (without cells) and a maximum enzyme release group were additionally set. An LDH release reagent in a volume of 1/10 of the original medium was added to the maximum enzyme activity well group of the sample, and the culture continued for 1 hour. 120 μL of supernatant was pipetted from each well and added to a new 96-well plate, and 60 μL of LDH detection working solution was added to each well, followed by uniform mixing and incubation at room temperature for 30 minutes (in dark). The absorbance of the sample was measured at 490 nm. Calculation: LDH release rate of cells (%)=(absorbance of the drug treatment group-absorbance of the control group)/(absorbance of the maximum enzyme release group-absorbance of the control group)×100%. When the absorbance value of each group was calculated, the absorbance value of the background blank control group was first subtracted.
SH-SY5Y nerve cells were purchased from the Xiangya Cell Bank of Central South University. […]
Cell viability was detected by MTS and cell injury was detected by an LDH release rate. […]

CCC[C@H](NC(=O)[C@@H]1[C@H]2CCC[C@H]2CN1C(=O)[C@@H](NC(=O)[C@@H](NC(=O)c1cnccn1)C1CCCCC1)C(C)(C)C)C(=O)C(=O)NC1CC1 [telaprevir]
release of LDH in the myocardial cell medium (LDH release rate) (H9c2 myocardial cells): significantly reduce
cell viability (MTS) of hypoxia/reoxygenation treated SH-SY5Y cells (SH-SY5Y nerve cells; FIG. 5A): significantly inhibit a decrease
LDH release rate of hypoxia/reoxygenation treated SH-SY5Y cells (SH-SY5Y nerve cells; FIG. 5B): significantly inhibit
